Columns and labels:
[1] = In vivo assay of oral bioavailability (plasma AUC 0-7 h by LCMS/MS); parameters: species or system male Sprague Dawley rats; conditions: male, Sprague-Dawley [Crl:CD(SD)Br]
Description: In column 1, the oral bioavailability of preferred type 5 inhibitors, expressed in ng/mL.h, was determined as described below in “Other Tests, A-In Vivo Assays of Bioavailability of Human Type 5 17β-HSD Inhibitors”. Higher number are desirable. ND means that a determination was not done.
The measurements at various time intervals were for values greater than or equal to 1.0 ng/mL and less than or equal to 50 ng/mL.
Male Sprague-Dawley rats [Crl:CD(SD)Br] weighing 275-350 g were obtained from Charles-River Canada Inc. and housed 2 per cage during the acclimation period and individually during the study period. The animals were maintained under a regimen of 12 hours light: 12 hours dark (lights on at 08:00). Animals received certified Rodent feed (Lab Diet #5002, pellets) and tap water ad libitum. Rats were fasted (access to water only) starting on the evening prior to dosing.
Each compound to be tested was administered to three animals as a suspension in 0.4% methylcellulose by oral gavage at a dose of 0.5 mg/rat (1.0 ml/rat). Four to eight new compounds were tested each day and one group of animals received megestrol acetate (MGA) under the same conditions on each dosing day as a reference. […] Blood samples were immediately transferred into a refrigerated 0.75 ml Microtainer containing EDTA and kept in an ice-water bath until centrifugation at 3000 rpm for 10 minutes. Plasma separation was performed rapidly (less than 50 minutes) after blood collection. One aliquot of 0.25 ml of plasma was then transferred into a borosilicate tube (13×100) and was rapidly frozen on dry-ice. Plasma samples were kept at −80° C. until measurement of plasma concentration of the inhibitor(s) by LCMS/MS.
Aliquots of rat plasma (0.250 mL) were transferred to 13×100 mm borosilicate tubes. Water (1.0 mL) and internal standard solution (0.1 mL) were added to each sample and vortexed for 2 min. A mixture of N-butyl chloride and acetone (v:v, 7:3) (3 mL) was added to each sample and vortexed for 2 min. This step was repeated and the combined organic phases were evaporated to dryness under nitrogen in a Turbo Vap evaporator at 35° C. The residue was reconstituted with 1 mL of methanol and evaporated in a Turbo Vap evaporator at 35° C. The final extract was reconstituted into 0.1 mL of methanol/water (v:v, 75:25) and then transferred into a conical vial for injection into the mass spectrometer.
The assay procedure was performed by analyzing, in duplicate, rat plasma samples spiked at six different Type 5 inhibitor concentrations (1, 2, 5, 10, 20 and 50 ng/mL). The lower limit of quantitation (LOQ) was established at 1.0 ng/mL. Values lower than 1.0 ng/mL were expressed as below limit of quantification (BLQ). […]

glucocorticoid receptor = biological target: T1, glucocorticoid receptor (Rattus norvegicus, UniProt P06536); experiment: Glucocorticoid receptor assay: inhibition of [3H]-dexamethasone binding, liver cytosol; conditions: for inhibition at 1 µM: read-out: % Inhibition Glucocorticold Receptor E^−6; for inhibition at 0.01 µM: read-out: % Inhibition Glucocorticold Receptor E^−8
T1 construct: from tissue; host or cells: liver cytosol of male Sprague-Dawley rats
T1 sequence (P06536 1-795): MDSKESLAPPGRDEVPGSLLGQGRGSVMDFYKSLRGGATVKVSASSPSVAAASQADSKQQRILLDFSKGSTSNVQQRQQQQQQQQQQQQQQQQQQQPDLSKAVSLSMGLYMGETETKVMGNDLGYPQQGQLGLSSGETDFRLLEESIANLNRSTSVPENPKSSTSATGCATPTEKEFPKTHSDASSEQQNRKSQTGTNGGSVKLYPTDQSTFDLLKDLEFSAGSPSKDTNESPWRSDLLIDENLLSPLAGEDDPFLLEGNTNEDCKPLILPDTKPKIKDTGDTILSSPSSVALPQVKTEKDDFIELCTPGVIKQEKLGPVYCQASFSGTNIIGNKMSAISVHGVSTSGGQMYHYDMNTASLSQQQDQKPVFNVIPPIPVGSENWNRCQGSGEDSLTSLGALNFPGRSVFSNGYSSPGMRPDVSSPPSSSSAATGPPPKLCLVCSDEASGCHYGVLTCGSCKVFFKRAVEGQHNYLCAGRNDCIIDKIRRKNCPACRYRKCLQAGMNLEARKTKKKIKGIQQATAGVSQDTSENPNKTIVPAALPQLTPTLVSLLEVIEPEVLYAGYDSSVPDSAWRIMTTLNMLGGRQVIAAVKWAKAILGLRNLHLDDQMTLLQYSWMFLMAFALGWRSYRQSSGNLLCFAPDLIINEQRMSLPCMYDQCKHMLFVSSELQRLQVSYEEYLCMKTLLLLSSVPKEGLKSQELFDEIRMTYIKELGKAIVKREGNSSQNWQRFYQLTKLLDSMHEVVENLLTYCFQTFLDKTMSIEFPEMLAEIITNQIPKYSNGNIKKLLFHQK
Description: The manner in which the percentage of inhibition is determined is described in “Other Tests; F-Glucocorticoid Receptor Assay”.
[6,7-^3H(N)]-Dexamethasone (39 Ci/mmol) was purchased from New England Nuclear (Lachine, Québec, Canada) while unlabeled dexametasone was obtained from Steraloids (Wilton, N.H.). All other chemicals were of analytical grade.
Stock solutions of the unlabeled steroids were kept at 4° C. in ethanol. The desired steroid solutions were then prepared by appropriate dilution in buffer B (10 mM Tris-HCl, 1.5 mM EDTA, 10 mM α-monothioglycerol, pH 7.4) containing 30% ethanol.
Male Sprague-Dawley rats weighing 200-300 g were obtained from Charles-River Inc. (St-Constant, Québec, Canada). The rats were killed by cervical dislocation and the liver were rapidly removed, dissected free from adhering tissue and frozen on dry-ice. Tissues were kept at −80° C. until use.
All procedures were performed at 4° C. Tissues were eminced and homogenized in 10 vol (w/v) of buffer A (25 mM Tris-HCl, 1.5 mM EDTA, 10 mM α-monothioglycerol, 10% glycerol, 10 mM sodium molybdate, pH 7.4) using a Polytron PT-10 homogenizer (Brinkmann Instruments, Canada) at a setting of 5 for two periods of 10 sec, with intervals of 10 sec for cooling. The homogenate was then centrifuged at 105,000×g for 90 min. The supernatant was used immediately for assay.
Glucocorticoid binding was measured using the dextran-coated charcoal adsorption technique. Incubations were performed at 0-4° C. for 16-18 h using 100 μl of cytosol, 100 μl of [^3H]-Dexamethasone (5 nM final) and 100 μl of unlabeled compounds at the indicated concentrations. Each concentration was done in triplicate. Assay was ended with 300 μl of DCC (2.5% Norit A and 0.25% Dextran T-70 in Buffer B). After 10 min of incubation, tubes were centrifuged at 2,000×g for 10 min. and decanted in vials with 6 ml of BCS liquid scintillation (New England Nuclear, Dupont). The radioactivity was measured in a Beckman counter at a counting efficiency of 35%.

[2] = 0.5 mg, Table 4′, oral, rat plasma

| SMILES | AUC(0-t) [1, 2] [ng·h/mL] | inhibition at 1 µM (glucocorticoid receptor; Table 4′, E^−6) [%] | inhibition at 0.01 µM (glucocorticoid receptor; Table 4′, E^−8) [%] | also measured |
| --- | --- | --- | --- | --- |
| CC(=O)O[C@]1(C(=O)N(C)C)CCC2C3C=C(C)C4=CC(=O)CC[C@]4(C)C3CC[C@@]21C (stereo partly shown) [EM-1159] | – | – | – | AUC(0-t) ([1]; rat, plasma, po, 0.5 mg): 452 ± 170 ng·h/mL; % Inhibition Glucocorticoid Receptor (glucocorticoid receptor; E^−6): 59%; % Inhibition Glucocorticoid Receptor (glucocorticoid receptor; E^−8): 8% |
| COCCOc1cc2c(cc1C(=O)OC)C1CC[C@@]3(C)C(CC[C@@]34CCC(C)(C)C(=O)O4)C1CC2 (stereo partly drawn) [EM-1402-CS, 2-Carbomethoxy-3-(2″-methoxyethyloxy)-1,3,5(10)-estratrien 17(R)-spiro-2′-(5′,5′-dimethyl-6′-oxo)tetrahydropyran] | 214 ± 36 | 7 | 4 | – |
| CC1(C)CC[C@@]2(CCC3C4CCc5cc(F)ccc5C4CC[C@@]32C)OC1=O (stereo partly shown) [EM-1157-CS] | 40 ± 7 | 0 | 1 | – |
| COCCOc1cc2c(cc1C(N)=O)C1CC[C@@]3(C)C(CC[C@@]34CCC(C)(C)C(=O)O4)C1CC2 (stereo partly drawn) [EM-1424, 2-Carbamoyl-3-(2″-methoxyethyloxy)-1,3,5(10)-estratrien 17(R)-spiro-2′-(5′,5′-dimethyl-6′-oxo)tetrahydropyran] | 368 ± 70 | 0 | 0 | – |
| CCC(=O)O[C@]1(C(C)=O)CCC2C3C=C(C)C4=CC(=O)C[C@H](C)[C@]4(C)C3CC[C@@]21C (stereo partly shown) [CS-243] | – | – | – | AUC(0-t) ([1]; rat, plasma, po, 0.5 mg): 11 ± 2.5 ng·h/mL; % Inhibition Glucocorticoid Receptor (glucocorticoid receptor; E^−6): 29%; % Inhibition Glucocorticoid Receptor (glucocorticoid receptor; E^−8): 0% |
| C[C@]12CCC3c4cc([N+](=O)[O-])c(O)cc4CCC3C1CC[C@@]21CCCC(=O)O1 (stereo partly drawn) [EM-1124, 2-Nitro-1,3,5(10)-estraetriene-3-ol-17(R)-spiro-2′-(6′-oxo)tetrahydropyran] | – | 1 | 1 | AUC(0-t) ([1]; rat, plasma, po, 0.5 mg, Table 4′, cell marked (8 h)): 5.1 ± 1 ng·h/mL |
| C[C@]12CCC3c4ccc(O)cc4CCC3C1CC[C@@]21CCCC(=O)O1 (stereo partly drawn) [EM-919, 1,3,5(10)-estratrien-3-ol-17(R)-spiro-2′(6′-oxo)tetrahydropyran] | 4.8 ± 0.8 | – | – | % Inhibition Glucocorticold Receptor *E^−5 (glucocorticoid receptor; Table 4′, starred values, E^−5): 33* %; % Inhibition Glucocorticold Receptor *E^−7 (glucocorticoid receptor; Table 4′, starred values, E^−7): 0* % |
| CC(C)C[C@@H]1CC2C3C=CC4=CC(=O)CC[C@]4(C)C3CC[C@]2(C)C1=O (stereo partly shown) [EM-1273-CS] | – | – | – | AUC(0-t) ([1]; rat, plasma, po, 0.5 mg/rat): 85 ± 26 ng·h/mL; % Inhibition Glucocorticoid Receptor E^−6 (glucocorticoid receptor; E^−6): 1%; % Inhibition Glucocorticoid Receptor E^−8 (glucocorticoid receptor; E^−8): 0% |
| COCCOc1cc2c(cc1Cl)C1CCC3(C)C(CCC34CCC(C)(C)C(=O)O4)C1CC2 (stereo not shown) [EM-1371-CS] | 64 ± 21 | 0 | 1 | – |
| CCC[C@@H]1CC2C3C=CC4=CC(=O)CC[C@]4(C)C3CC[C@]2(C)C1=O (stereo partly shown) [EM-1097] | – | – | – | AUC(0-t) ([1]; rat, plasma, po, 0.5 mg/rat): 122 ± 5.7 ng·h/mL; % Inhibition Glucocorticoid Receptor E^−6 (glucocorticoid receptor; E^−6): 0%; % Inhibition Glucocorticoid Receptor E^−8 (glucocorticoid receptor; E^−8): 0% |
| CC1(C)CC[C@@]2(CCC3C4CCc5cc(C(N)=O)ccc5C4CCC32C)OC1=O (stereo partly shown) [EM-1404] | 3840 ± 197 | 0 | 0 | – |
| CC(=O)O[C@]1(C(C)=O)CCC2C3C=C(C)C4=CC(=O)CC[C@]4(C)C3CC[C@@]21C (stereo partly shown) [megestrol acetate, reference compound] | – | – | – | AUC(0-t) ([1]; rat, plasma, po, 0.5 mg): 92 ± 17 ng·h/mL; % Inhibition Glucocorticoid Receptor (glucocorticoid receptor; * E^−5): 98* %; % Inhibition Glucocorticoid Receptor (glucocorticoid receptor; * E^−7): 17* %; % Inhibition Glucocorticoid Receptor (glucocorticoid receptor; E^−6): 82%; % Inhibition Glucocorticoid Receptor (glucocorticoid receptor; E^−8): 0% |
| CC1(C)CCC2(CCC3C4CCc5cc(O)c(C#N)cc5C4CCC32C)OC1=O (stereo not shown) [EM-01645] | 52 ± 3 | – | – | – |
| COc1ccc2c(c1)C(=O)CC1C2CC[C@@]2(C)C1CC[C@@]21CCC(C)(C)C(=O)O1 (stereo partly shown) [EM-1394] | 1760 ± 69 | 2 | 3 | – |
| CCCC(=O)OC1(C(C)=O)CCC2C3C=C(C)C4=CC(=O)CC(C)C4(C)C3CCC21C (stereo not shown) [CS-245] | – | – | – | AUC(0-t) ([1]; rat, plasma, po, 0.5 mg): 18 ± 5 ng·h/mL; % Inhibition Glucocorticoid Receptor (glucocorticoid receptor; E^−6): 43%; % Inhibition Glucocorticoid Receptor (glucocorticoid receptor; E^−8): 0% |
| CC1(C)CC[C@@]2(CCC3C4CCc5cc(C(=O)O)ccc5C4CC[C@@]32C)OC1=O (stereo partly drawn) [EM-1401, 3-Carboxy-1,3,5(10)-estratrien-17(R)-spiro-2′-(5′,5′-dimethyl-6′-oxo)tetrahydropyran] | 1630 ± 181 | 2 | 4 | – |
| CC1(C)CCC2(CCC3C4CCc5c(cc(Cl)c(OS(C)(=O)=O)c5Cl)C4CCC32C)OC1=O (stereo not shown) [EM-1392-CS] | 305 ± 49 | 8 | 0 | – |
| COc1cc2c(cc1C(F)(F)F)C1CCC3(C)C(CCC34CCC(C)(C)C(=O)O4)C1CC2 [EM-1409, 3-Methoxy-2-trifluoromethyl-1,3,5(10)-estratrien-17(R)-spiro-2′-(5′,5′-dimethyl-6′-oxo)tetrahydropyran] | 36 ± 13 | – | – | – |

Source: US6541463B1, “Inhibitors of type 5 and type 3 17β-hydroxysteroid dehydrogenase and methods for their use” (Endorecherche, Inc., priority 1998, dated 2003)
